In patent publication US20190224186A1, “TREATMENT OF MULTIPLE SCLEROSIS WITH CHS-131” (InteKrin Therapeutics, Inc., priority 2016, published 2019):

Tested on: MS patients in the relapsing and remitting course of the disease (RRMS)
Experiment: Phase 2 trial: annualized confirmed relapse rate (ARR)
Assay type: in vivo, human
Method: The study enrolled MS patients in the relapsing and remitting course of the disease (RRMS) who had been diagnosed within ≤3 years of enrollment. Patients had to be treatment-naïve, have ≥1 gadolinium-positive lesion within 12 months of enrollment, and have an Expanded Disability Status Score (EDSS) of 0-6 at screening. Part 1 was a double-blind, parallel-group, 6-month study. Patients were randomized to oral CHS-131 at 3 mg or 1 mg or placebo in a 1:1:1 ratio at 21 sites in Russia. Monthly MRIs were read in a blinded fashion at the Buffalo Neuroimaging and Analysis Center, Buffalo, N.Y., USA. Part 2 is an open label, 6-month, safety extension study, in which all subjects transition to 1 mg CHS-131 daily, to evaluate clinical response, CE lesions on MM, and safety. The ARR was lower for both 3 mg CHS-131 (0.26) and 1 mg (0.28) as compared with placebo (0.35). Thus, administering CHS-131 reduces the rate at which relapses of worsening neurological function (e.g. flare-ups or exacerbations) occur. Put otherwise, administration of CHS-131 increases the time between relapses.

## O=S(=O)(Nc1cc(Cl)c(Oc2cnc3ccccc3c2)c(Cl)c1)c1ccc(Cl)cc1Cl [CHS-131]
1 mg
  Annualized Confirmed Relapse Rate (ARR): 0.28
3 mg
  Annualized Confirmed Relapse Rate (ARR): 0.26
